Where two headings read alike, the source gives them in different places.
Target: T1, SIRT1 (Homo sapiens, UniProt Q96EB6)
T1 sequence (Q96EB6 1-747): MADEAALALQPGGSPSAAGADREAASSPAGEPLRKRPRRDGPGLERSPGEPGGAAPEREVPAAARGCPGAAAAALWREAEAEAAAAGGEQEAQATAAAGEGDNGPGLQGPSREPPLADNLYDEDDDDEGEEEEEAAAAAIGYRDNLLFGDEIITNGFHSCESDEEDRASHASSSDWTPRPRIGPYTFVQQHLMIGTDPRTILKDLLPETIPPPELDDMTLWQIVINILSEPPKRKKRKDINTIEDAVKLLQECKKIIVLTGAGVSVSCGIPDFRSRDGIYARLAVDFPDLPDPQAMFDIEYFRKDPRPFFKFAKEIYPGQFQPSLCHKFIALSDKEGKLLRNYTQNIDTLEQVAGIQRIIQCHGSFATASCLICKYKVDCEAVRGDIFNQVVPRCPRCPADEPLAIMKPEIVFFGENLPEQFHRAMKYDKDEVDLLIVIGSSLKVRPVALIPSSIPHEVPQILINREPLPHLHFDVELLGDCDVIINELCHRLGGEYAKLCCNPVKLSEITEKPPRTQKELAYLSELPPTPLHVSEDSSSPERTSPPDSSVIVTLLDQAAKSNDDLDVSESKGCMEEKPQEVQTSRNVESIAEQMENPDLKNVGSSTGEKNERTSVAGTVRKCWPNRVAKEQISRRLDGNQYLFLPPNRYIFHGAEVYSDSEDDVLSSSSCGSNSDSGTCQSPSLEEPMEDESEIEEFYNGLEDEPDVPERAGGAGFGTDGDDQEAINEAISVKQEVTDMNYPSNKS
Assay: Trp mass spectrometry assay (SIRT1 activation)
Assay type: biochemical
Conditions: for Emax: percent maximum fold activation of SIRT1, read-out: Tryp % Fold Act
How it was run: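 N-His-tagged SIRT1 (10 nM), expressed in E. coli, was incubated with 0.5 μM Ac-RHKK(Ac)W-NH2 peptide and 120 μM NAD+ for 25 min at 25 °C in HEPES pH 7.5 with […]. The reaction was stopped with formic acid and O-acetyl-ADP-ribose or deacetylated peptide was quantified by mass spectrometry. Results are given as EC1.5 and percent maximal activation relative to DMSO control.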

[1] = concentration of test compound that results in 150% activation of SIRT1, Trp peptide substrate
[2] = Trp mass spectrometry assay, EC1.5 = concentration of test compound that results in 150% activation of SIRT1
[3] = Trp mass spectrometry assay, EC1.5 = concentration giving 150% activation of SIRT1

SMILES	Tryp AVG EC1.5 (μM) [1]	Emax (Trp peptide substrate)	Tryp AVG EC1.5 (μM) [2]	Emax (Trp mass spectrometry assay)	Tryp AVG EC1.5 (μM) [3]
Cc1ccc(-c2ccc3c(n2)N(C(=O)Nc2ccc(F)cn2)[C@H]2CCN3C2)cn1 [Example 237]	B (EC1.5 1-25 μM)	≥ 150%	–	–	–
Cn1cc2cc(NC(=O)N3c4nc(-c5cccc(Cl)c5)ccc4N4CC[C@H]3C4)ccc2n1 [Example 118]	–	–	A (EC1.5<1 μM)	≥ 150%	–
O=C(Nc1cccc(-c2cnco2)c1)N1c2nc(-c3cccc(N4CCCC4)c3)ccc2N2CC[C@H]1C2 [Example 191]	–	–	A (EC1.5<1 μM)	≥ 150%	–
O=C(Nc1ccccn1)N1c2nc(-c3cccc(N4CCCC4)c3)ccc2N2CC[C@H]1C2 [Example 136]	–	–	A (EC1.5<1 μM)	≥ 150%	–
Cn1ncc2cc(NC(=O)N3c4nc(-c5cccc(C(F)(F)F)c5)ccc4N4CC[C@H]3C4)ccc21 [Example 87]	–	–	A (EC1.5<1 μM)	≥ 150%	–
O=C(Nc1ccccn1)N1c2nc(-c3ccccc3C(F)(F)F)ccc2N2CC[C@H]1C2 [Example 137]	–	–	C (EC1.5>25 μM)	< 150%	–
Cc1cc(NC(=O)N2c3nc(N4CC[C@H](N(C)C)C4)ccc3N3CC[C@H]2C3)cc(C)n1 [Example 245]	B (EC1.5 1-25 μM)	≥ 150%	–	–	–
CC(=O)c1ccc(NC(=O)N2c3nc(-c4cccc(C(F)(F)F)c4)ccc3N3CC[C@H]2C3)cc1 [Example 668]	–	–	–	≥ 150%	A (EC1.5<1 μM)
O=C(Nc1cncc(F)c1)N1c2nc(-c3cccc(N4CCCC4)c3)ccc2N2CC[C@H]1C2 [Example 198]	–	–	B (EC1.5 1-25 μM)	≥ 150%	–
O=C(Nc1ncccn1)N1c2nc(N3CCCC(C(F)(F)F)C3)ccc2N2CCC[C@H]1C2 (some centres unmarked) [Example 292]	A (EC1.5<1 μM)	≥ 150%	–	–	–
O=C(Nc1cccnn1)N1c2nc(-c3cccc(C(F)(F)F)c3)ccc2N2CCC[C@H]1C2 [Example 28]	–	–	–	≥ 150%	–
N#Cc1ccccc1-c1ccc2c(n1)N(C(=O)Nc1cncc(F)c1)[C@H]1CCCN2C1 [Example 439]	B (EC1.5 1-25 μM)	≥ 150%	–	–	–
O=C(Nc1ccccn1)N1c2nc(-c3cccc(Cl)c3)ccc2N2C[C@@H](O)[C@H]1C2 [Example 675]	–	–	–	≥ 150%	B (EC1.5 1-25 μM)
CCC(=O)N1CCC(c2cccc(NC(=O)N3c4nc(-c5cccc(C(F)(F)F)c5)ccc4N4CC[C@H]3C4)c2)C1 (some centres unmarked) [Example 636]	–	–	–	≥ 150%	A (EC1.5<1 μM)
COc1cc(NC(=O)N2c3nc(-c4cccc(Cl)c4)ccc3N3CCC[C@H]2C3)ncn1 [Example 408]	A (EC1.5<1 μM)	≥ 150%	–	–	–
C#CCNc1nccc(NC(=O)N2c3nc(-c4cccc(C5(C(F)(F)F)N=N5)c4)ccc3N3CC[C@H]2C3)n1 [Example 804]	–	–	–	≥ 150%	A (EC1.5<1 μM)
O=C(Nc1ccc(F)cn1)N1c2nc(-c3cccc(F)c3)ccc2N2CC[C@H]1C2 [Example 59]	–	–	–	≥ 150%	–
COc1cc(NC(=O)N2c3nc(-c4cncc(C(F)(F)F)c4)ccc3N3C[C@@H](O)[C@H]2C3)ncn1 [Example 696]	–	–	–	≥ 150%	B (EC1.5 1-25 μM)
Cc1nc(NC(=O)N2c3nc(-c4cccc(C(F)(F)F)c4)ccc3N3CCC2CC3)sc1C [Example 173]	–	–	A (EC1.5<1 μM)	≥ 150%	–
COc1cc(NC(=O)N2c3nc(-c4cccc(N5CCCC5)c4)ccc3N3CC[C@H]2C3)ncn1 [Example 132]	–	–	B (EC1.5 1-25 μM)	≥ 150%	–
O=C(Nc1ccncc1)N1c2nc(N3CCCC(C(F)(F)F)C3)ccc2N2CCC[C@H]1C2 (some centres unmarked) [Example 360]	A (EC1.5<1 μM)	≥ 150%	–	–	–
Cc1ccncc1-c1ccc2c(n1)N(C(=O)Nc1ccccn1)[C@H]1CCCN2C1 [Example 505]	C (EC1.5>25 μM)	< 150%	–	–	–
Cc1csc2nc(NC(=O)N3c4nc(-c5cccc(C(F)(F)F)c5)ccc4N4CC[C@H]3C4)nn12 [Example 80]	–	–	–	≥ 150%	–
O=C(Nc1cccc(-c2ccc(C(F)(F)F)cn2)c1)N1c2nc(-c3cccc(C(F)(F)F)c3)ccc2N2CC[C@H]1C2 [Example 618]	B (EC1.5 1-25 μM)	≥ 150%	–	–	–

SMILES	Tryp AVG EC1.5 (μM) [1]	Emax (Trp peptide substrate)	Tryp AVG EC1.5 (μM) [2]	Emax (Trp mass spectrometry assay)	Tryp AVG EC1.5 (μM) [3]
CS(=O)(=O)c1cccc(-c2ccc3c(n2)N(C(=O)Nc2cccc(-c4cnco4)c2)[C@H]2CCN3C2)c1 [Example 710]	–	–	–	≥ 150%	A (EC1.5<1 μM)
Cc1cc(-c2ccc3c(n2)N(C(=O)Nc2cccc(-c4cnco4)c2)[C@H]2CCN3C2)ccn1 [Example 480]	A (EC1.5<1 μM)	≥ 150%	–	–	–
O=C(Nc1cnc(OC[C@H](O)CO)cn1)N1c2nc(-c3cccc(C(F)(F)F)c3)ccc2N2CC[C@H]1C2 [Example 18]	–	–	–	≥ 150%	–
O=C(Nc1cncnc1)N1c2nc(-c3cccc(C(F)(F)F)c3)ccc2N2CCC[C@H]1C2 [Example 38]	–	–	–	≥ 150%	–
Cc1cccnc1NC(=O)N1c2nc(-c3cccc(C(F)(F)F)c3)ccc2N2CCC[C@H]1C2 [Example 35]	–	–	–	≥ 150%	–
NC(=O)c1cncc(-c2ccc3c(n2)N(C(=O)Nc2ccccn2)[C@H]2CCN3C2)c1 [Example 371]	B (EC1.5 1-25 μM)	≥ 150%	–	–	–
O=C(Nc1cccc(-c2ccsc2)n1)N1c2nc(-c3cccc(C(F)(F)F)c3)ccc2N2CC[C@H]1C2 [Example 653]	–	–	–	≥ 150%	A (EC1.5<1 μM)
Cc1nc(NC(=O)N2c3nc(-c4cccc(N5CCCC5)c4)ccc3N3CC[C@H]2C3)sc1C [Example 187]	–	–	B (EC1.5 1-25 μM)	≥ 150%	–
Cc1cncc(-c2ccc3c(n2)N(C(=O)Nc2cncc(F)c2)[C@H]2CCCN3C2)c1 [Example 509]	A (EC1.5<1 μM)	≥ 150%	–	–	–
Cc1cccnc1NC(=O)N1c2nc(-c3cccc(Cl)c3)ccc2N2CC[C@H]1C2 [Example 106]	–	–	C (EC1.5>25 μM)	≥ 150%	–
COC(=O)c1cccc(NC(=O)N2c3nc(-c4cccc(C(F)(F)F)c4)ccc3N3CC[C@H]2C3)c1 [Example 626]	–	–	–	≥ 150%	A (EC1.5<1 μM)
O=C(Nc1cccc2nccnc12)N1c2nc(-c3cccc(C(F)(F)F)c3)ccc2N2CC[C@H]1C2 [Example 83]	–	–	A (EC1.5<1 μM)	≥ 150%	–
CS(=O)(=O)c1cncc(-c2ccc3c(n2)N(C(=O)Nc2cccnc2)[C@H]2CCCN3C2)c1 [Example 376]	A (EC1.5<1 μM)	≥ 150%	–	–	–
O=C(Nc1cc(-c2cnco2)cc(-c2cnco2)c1)N1c2nc(-c3cccc(C(F)(F)F)c3)ccc2N2CC[C@H]1C2 [Example 743]	–	–	–	≥ 150%	A (EC1.5<1 μM)
Cc1cc(C(F)(F)F)nc(NC(=O)N2c3nc(-c4cccc(C(F)(F)F)c4)ccc3N3CC[C@H]2C3)n1 [Example 94]	–	–	B (EC1.5 1-25 μM)	≥ 150%	–
O=C(Nc1ccc(N2CCCCC2)cc1)N1c2nc(-c3cccc(C(F)(F)F)c3)ccc2N2CC[C@H]1C2 [Example 628]	–	–	–	≥ 150%	B (EC1.5 1-25 μM)
N#Cc1cccc(-c2ccc3c(n2)N(C(=O)Nc2ccncn2)[C@H]2CCN3C2)c1 [Example 181]	–	–	A (EC1.5<1 μM)	≥ 150%	–
O=C(Nc1cncc(F)c1)N1c2nc(-c3cccc(C(F)(F)F)c3)ccc2S(=O)(=O)N2CC[C@H]1C2 [Example 460]	B (EC1.5 1-25 μM)	≥ 150%	–	–	–
N#Cc1ccccc1-c1ccc2c(n1)N(C(=O)Nc1cccnc1)[C@H]1CCCN2C1 [Example 438]	B (EC1.5 1-25 μM)	≥ 150%	–	–	–
NCc1cnnn1-c1cccc(NC(=O)N2c3nc(-c4cccc(C(F)(F)F)c4)ccc3N3CC[C@H]2C3)c1 [Example 640]	–	–	–	≥ 150%	A (EC1.5<1 μM)
O=C(Nc1nc2ccccc2s1)N1c2nc(-c3cccc(C(F)(F)F)c3)ccc2N2CC[C@H]1C2 [Example 90]	–	–	A (EC1.5<1 μM)	≥ 150%	–
NCCCc1cc(NC(=O)N2c3nc(-c4cccc(C(F)(F)F)c4)ccc3N3CC[C@H]2C3)cc(-c2cnco2)c1 [Example 770]	–	–	–	≥ 150%	A (EC1.5<1 μM)
O=C(Nc1ccnc(OC[C@H](O)CO)c1)N1c2nc(-c3cccc(F)c3)ccc2N2CC[C@H]1C2 [Example 73]	–	–	–	≥ 150%	–
Cc1ccc(-c2ccc3c(n2)N(C(=O)Nc2cccnn2)[C@H]2CCCN3C2)cn1 [Example 467]	B (EC1.5 1-25 μM)	≥ 150%	–	–	–

Source: patent publication US9765075B2, “Substituted bridged urea analogs as sirtuin modulators” (GLAXOSMITHKLINE LLC, priority 2013, dated 2017)
